In ChEMBL document CHEMBL1201862, “PubChem BioAssay data set” (2004):
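Step 1: Grow cells in 96-well plates. Step 2: Expose to compound for 48 hours at 5 concentrations. Step 3: Interpolate endpoints linearly; if unreached, use highest concentration. GI50 is the concentration that inhibits growth by half.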 Activity calls are given as the source filed them. No stated cut-off is given here; in the data, active = GI50 up to about 1.1 µM and inactive = higher.

Experiments:
Assay in all cases: growth of human tumour cells (NCI), 48 h
HCT-15 = tested on: HCT-15
U-251 = tested on: U-251
NCI-H522 = tested on: NCI-H522
MOLT-4 = tested on: MOLT-4
UO-31 = tested on: UO-31
NCI-H460 = tested on: NCI-H460
COLO 205 = tested on: COLO 205
SF-268 = tested on: SF-268
K562 = tested on: K562
EKVX = tested on: EKVX
SN12C = tested on: SN12C
SK-MEL-2 = tested on: SK-MEL-2
HOP-62 = tested on: HOP-62
Malme-3M = tested on: Malme-3M
DMS-114 = tested on: DMS-114
ACHN = tested on: ACHN
MDA-N = tested on: MDA-N
DU-145 = tested on: DU-145
NCI/ADR-RES = tested on: NCI/ADR-RES
MCF7 = tested on: MCF7

Structure (SMILES)	GI50 (HCT-15)	GI50 (U-251)	GI50 (NCI-H522)	GI50 (MOLT-4)	GI50 (UO-31)	GI50 (NCI-H460)	GI50 (COLO 205)	GI50 (SF-268)	GI50 (K562)	GI50 (EKVX)	GI50 (SN12C)	GI50 (SK-MEL-2)	GI50 (HOP-62)	GI50 (Malme-3M)	GI50 (DMS-114)	GI50 (ACHN)	GI50 (MDA-N)	GI50 (DU-145)	GI50 (NCI/ADR-RES)	GI50 (MCF7)
N/C(=N\O)N/N=C\c1c2ccccc2c(Cl)c2ccccc12	5.82 µM	7.5 µM (inactive)	3.8 µM (inactive)	4.18 µM (inactive)	10.7 µM (inactive)	2.23 µM (inactive)	3.67 µM (inactive)	7.5 µM (inactive)	3.72 µM (inactive)	3.03 µM (inactive)	6.79 µM (inactive)	10.5 µM (inactive)	10.5 µM (inactive)	4.6 µM (inactive)	3.19 µM (inactive)	4.33 µM (inactive)	–	–	–	–
CC1(C2COC(=O)C2)SCCCS1 (centres undefined)	> 100 µM	–	2.79 µM (inactive)	> 100 µM (inactive)	14.2 µM (inactive)	> 100 µM (inactive)	> 100 µM (inactive)	> 100 µM (inactive)	–	> 100 µM (inactive)	> 100 µM (inactive)	> 100 µM (inactive)	> 100 µM (inactive)	> 100 µM (inactive)	> 100 µM (inactive)	> 100 µM (inactive)	–	–	–	–
COS(=O)c1cc(Cl)cc(Cl)c1OC(=O)CSSCC(=O)Oc1c(Cl)cc(Cl)cc1S(=O)OC (centres undefined)	14.4 µM	5.92 µM (inactive)	14.2 µM (inactive)	17.1 µM (inactive)	13.2 µM (inactive)	8.69 µM (inactive)	22.6 µM (inactive)	7.26 µM (inactive)	20.4 µM (inactive)	20 µM (inactive)	10.2 µM (inactive)	17.3 µM (inactive)	> 10 µM (inactive)	15.2 µM (inactive)	15.8 µM (inactive)	21 µM (inactive)	–	–	–	–
N#C/C(=C\c1ccc2[nH]ccc2c1)C(=O)NCCCCNC(=O)/C(C#N)=C/c1ccc2[nH]ccc2c1	> 31.6 µM	> 31.6 µM (inactive)	> 31.6 µM (inactive)	> 31.6 µM (inactive)	> 31.6 µM (inactive)	> 31.6 µM (inactive)	> 31.6 µM (inactive)	> 31.6 µM (inactive)	> 31.6 µM (inactive)	> 31.6 µM (inactive)	> 31.6 µM (inactive)	> 31.6 µM (inactive)	> 31.6 µM (inactive)	> 31.6 µM (inactive)	> 100 µM (inactive)	> 31.6 µM (inactive)	> 10 µM (inactive)	> 10 µM (inactive)	> 10 µM (inactive)	> 10 µM (inactive)
CCCCCCCCCCCC(=O)OCCOCCOCCOCCOCCOCc1ccc(OC)cc1	> 100 µM	> 100 µM (inactive)	> 100 µM (inactive)	73.6 µM (inactive)	> 100 µM (inactive)	> 100 µM (inactive)	> 100 µM (inactive)	> 100 µM (inactive)	> 100 µM (inactive)	> 100 µM (inactive)	> 100 µM (inactive)	> 100 µM (inactive)	> 100 µM (inactive)	> 100 µM (inactive)	> 100 µM (inactive)	> 100 µM (inactive)	–	–	–	–
CCSc1nc(-c2ccc(OC)cc2)c(C#N)c(=O)n1C1OCC(OC(C)=O)C(OC(C)=O)C1OC(C)=O (centres undefined)	> 100 µM	> 100 µM (inactive)	92 µM (inactive)	43.5 µM (inactive)	> 100 µM (inactive)	> 100 µM (inactive)	> 100 µM (inactive)	> 100 µM (inactive)	> 100 µM (inactive)	> 100 µM (inactive)	> 100 µM (inactive)	> 100 µM (inactive)	> 100 µM (inactive)	> 100 µM (inactive)	72.4 µM (inactive)	> 100 µM (inactive)	–	–	–	–
CCN(CC)C(=O)c1c(Cl)cc(N(CC)CC)oc1=O	> 100 µM	> 100 µM (inactive)	> 100 µM (inactive)	> 100 µM (inactive)	> 100 µM (inactive)	> 100 µM (inactive)	> 100 µM (inactive)	> 100 µM (inactive)	> 100 µM (inactive)	> 100 µM (inactive)	> 100 µM (inactive)	> 100 µM (inactive)	> 100 µM (inactive)	> 100 µM (inactive)	> 100 µM (inactive)	> 100 µM (inactive)	–	–	–	–
